These results are taken from patent US20150038430A1, “THERAPEUTIC PEPTIDOMIMETIC MACROCYCLES” (AILERON Therapeutics, Inc., priority 2008, published 2015).

Experiment [1] has as its system SEMK2. Format: cell-based, human. The conditions noted are these: 24 h. The procedure: (§1) Cell viability assays shown in FIGS. 34-52 were performed according to a similar protocol. Cells were split at optimal cell density a day prior to the initiation of the study. The next day, cells were washed twice in serum-free Opti-MEM media and 4000 cells/well were added to each well in a final volume of […] Opti-MEM. For serum-free experiments, macrocycles were diluted from 2 mM stocks (100% DMSO) in sterile water to prepare 400 μM working solutions. A 40 μM solution was then generated by ten-fold dilution in assay buffer. The macrocycle and controls were then serially diluted two-fold in assay buffer in dosing plates to provide concentrations between 1.2 and 40 μM, respectively. For experiments in 2% human serum, macrocycles were diluted from 10 mM stocks (100% DMSO) in sterile water to prepare 1 mM working solutions. A 100 μM solution was generated by ten-fold dilution in assay buffer. The macrocycles and controls were then serially diluted two-fold in assay buffer in dosing plates to provide concentrations between 3 and 100 μM, respectively. 50 μl of each dilution was then added to the appropriate wells of the test plate to achieve final concentrations of the macrocycle between 0.6 to 20 μM (for serum free experiment) or 1.5 to 50 μM (for 2% serum experiment), respectively. Controls included wells without macrocycles containing the same concentration of DMSO as the macrocycle-containing wells, wells containing 0.1% Triton X-100, and wells containing no cells. Plates were incubated for 24 hours at 37° C. in a humidified 5% CO2 atmosphere. At the end of a 24 hr incubation period, a CellTiter-Glo Luminescent Cell Viability Assay was performed according to manufacturer's instructions (Promega, catalog #G7571) and the luminescence was measured using a BIO-TEK synergy HT Plate reader. Values were plotted as percent viable, i.e. as a percentage of the negative control value (derived from cells exposed to DMSO only). All assays were performed in duplicate.
(§2) The following tables summarize the EC50 values (μM) observed with peptidomimetic macrocycles of the invention in various cell lines: […]

Experiment [2] relates to Raji. Format: cell-based, human. As to conditions: 24 h. The procedure:
as §1, §2

The test system of experiment [3] is Jurkat. In kind it is cell-based, human. The conditions noted are these: 24 h. The procedure:
as §1, §2

Experiment [4] relates to OVCAR8. In kind it is cell-based, human. As to conditions: 24 h. Here is the method:
as §1, §2

Experiment [5] deals with RS4;11. In kind it is cell-based, human. As to conditions: 24 h. Here is the method: as §1, §2
Experiment [6] deals with MM1S. In kind it is cell-based, human. The conditions noted are these: 24 h. Here is the method: as §1, §2
Experiment [7] deals with Molt-4. In kind it is cell-based, human. As to conditions: 24 h. Here is the method: as §1, §2
Experiment [8] relates to NCI-H82 (SCLC-MCL1+). In kind it is cell-based, human. The conditions noted are these: 24 h. Here is the method: as §1, §2
Experiment [9] deals with A375. Format: cell-based, human. As to conditions: 24 h. The procedure:
as §1, §2

Experiment [10] has as its system MDA-MB231-Met. In kind it is cell-based, human. As to conditions: 24 h. Here is the method: as §1, §2
The target of experiment [11] is Bcl-2. Put plainly: Kd, μM | Bcl-2. The text has this: (§3) Table printed on a drawing sheet, Figure 27
Head of the field: Kd, μM | Bcl-2
(§4) First copying reader's note: The last row (ABT-737) is a small-molecule comparator; the three plots above the table are not copied.
Where the first naming reader finds the target: head: Kd, μM | Bcl-2

For experiment [12], the target named is Bcl-xL (Homo sapiens, UniProt Q07817). Put plainly: Kd, μM | Bcl-xL.
Excerpt: as §3
Head of the field: Kd, μM | Bcl-xL
Where the first naming reader finds the target: head: Kd, μM | Bcl-xL

The target in experiment [13] is Mcl-1. The experiment is described as follows: Kd, μM | Mcl-1.
Excerpt: as §3
Head of the field: Kd, μM | Mcl-1
as §4
Where the first naming reader finds the target: head: Kd, μM | Mcl-1

Experiment [14] deals with PC3. Format: cell-based, human. As to conditions: 24 h. The procedure:
as §1, §2

Experiment [15] relates to DHL-6. In kind it is cell-based, human. As to conditions: 24 h. The procedure: as §1, §2

Numbered stars: 1 amine (or outer) side, 2 acyl side, 3 side chain; on linkers, the order of the positions; unused ones are H or OH. Bridge positions count the residues as written; N and C are the ends. Square brackets hold non-standard residues; d marks the D form. Peptide text beside a SMILES is read from it. ξ: configuration not given here. ξαMeNle(6-ylidene) = CC(CCCC=[*:3])(N[*:1])C(=O)[*:2]; Nle = CCCC[C@H](N)C(=O)O

Chain of Bcl-xL (Q07817 whole entry, looked up): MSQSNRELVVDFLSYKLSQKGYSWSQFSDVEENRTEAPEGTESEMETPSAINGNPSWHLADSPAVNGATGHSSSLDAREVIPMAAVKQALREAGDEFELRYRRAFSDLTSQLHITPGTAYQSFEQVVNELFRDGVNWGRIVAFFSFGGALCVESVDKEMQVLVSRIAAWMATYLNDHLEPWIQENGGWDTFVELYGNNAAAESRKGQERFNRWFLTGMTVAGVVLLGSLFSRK

As for `CCCC[C@H](NC(=O)C1(C)CCCC=CCCCC(C)(NC(=O)[C@H](C)NC(=O)[C@H](CC(C)C)NC(=O)[C@H](Cc2c[nH]cn2)NC(=O)[C@H](CCCNC(=N)N)NC(=O)[C@H](C)NC(=O)[C@@H](NC(=O)[C@H](CC(N)=O)NC(=O)[C@H](CCCNC(=N)N)NC(=O)[C@@H](NC(=O)[C@@H](NC(=O)[C@H](CC(=O)O)NC(C)=O)[C@@H](C)CC)[C@@H](C)CC)[C@@H](C)CC)C(=O)N[C@@H](C(C)C)C(=O)N[C@@H](CCC(=O)O)C(=O)N[C@@H](CC(=O)O)C(=O)N1)C(=O)N[C@@H](CC(=O)O)C(=O)N[C@@H](CCCNC(=N)N)C(=O)N[C@@H](CO)C(=O)N[C@H](C(N)=O)[C@@H](C)CC` (some centres unmarked) [SP-2] (Ac-DIIRNIARHLA[ξαMeNle(6-ylidene)]VED[ξαMeNle(6-ylidene)][Nle]DRSI-NH2; staple 12-16), the EC50 in experiment [1], in experiment [2], in [3], in experiment [4], in [5] and in [6] was greater than 20000 nM each time. Moreover, the half-maximal effective concentration (EC50) in experiment [7], in experiment [8], in experiment [9] and in experiment [10] was greater than 20000 nM each time. The dissociation constant (Kd) in [11], in [12] and in [13] was greater than 10 µM each time.
For the compound `CC[C@H](C)[C@H](NC(C)=O)C(=O)N[C@@H](Cc1c[nH]c2ccccc12)C(=O)N[C@H](C(=O)N[C@@H](C)C(=O)N[C@@H](CCC(N)=O)C(=O)N[C@@H](CCC(=O)O)C(=O)N[C@@H](CC(C)C)C(=O)N[C@@H](CCCNC(=N)N)C(=O)NC1(C)CCCC=CCCCC(C)(C(=O)N[C@@H](Cc2ccccc2)C(=O)N[C@@H](CC(N)=O)C(=O)N[C@@H](C)C(=O)N[C@@H](Cc2ccc(O)cc2)C(=O)N[C@@H](Cc2ccc(O)cc2)C(=O)N[C@@H](C)C(=O)N[C@@H](CCCNC(=N)N)C(=O)N[C@@H](CCCNC(=N)N)C(N)=O)NC(=O)[C@H](CC(=O)O)NC(=O)[C@H](CCC(=O)O)NC(=O)[C@H]([C@@H](C)CC)NC1=O)[C@@H](C)CC` (some centres unmarked) [SP-5] (Ac-IWIAQELR[ξαMeNle(6-ylidene)]IED[ξαMeNle(6-ylidene)]FNAYYARR-NH2; staple 9-13), the Kd in experiment [11], in [12] and in experiment [13] was greater than 10 µM each time.
On to `CCCC[C@@H]1NC(=O)CNC(=O)[C@H]([C@@H](C)CC)NC(=O)C(C)(NC(=O)[C@H](CCCNC(=N)N)NC(=O)[C@H](CC(C)C)NC(=O)[C@H](C)NC(=O)[C@H](CCC(N)=O)NC(=O)[C@H](C)NC(=O)[C@@H](NC(=O)[C@H](Cc2c[nH]c3ccccc23)NC(=O)[C@H](CCCNC(=N)N)NC(C)=O)[C@@H](C)CC)CCCC=CCCCC(C)(C(=O)N[C@@H](Cc2ccccc2)C(=O)N[C@@H](CC(N)=O)C(=O)N[C@@H](C)C(=O)N[C@@H](Cc2ccc(O)cc2)C(=O)N[C@@H](Cc2ccc(O)cc2)C(=O)N[C@@H](C)C(=O)N[C@@H](CCCNC(=N)N)C(=O)N[C@@H](CCCNC(=N)N)C(N)=O)NC1=O` (some centres unmarked) [SP-12] (Ac-RWIAQALR[ξαMeNle(6-ylidene)]IG[Nle][ξαMeNle(6-ylidene)]FNAYYARR-NH2; staple 9-13), for which the concentration for a half-maximal effect (EC50) in experiment [1] turned out to be 500 nM; in experiment [2], 300 nM; in experiment [3] it was 400 nM; in [4], 700 nM; in experiment [5], 1710 nM; in [14], 1900 nM. Also, the EC50 amounted to 700 nM in experiment [7], 900 nM in experiment [8], 700 nM in experiment [9] and 500 nM in experiment [10]. Besides, the dissociation constant Kd came out at 0.19 µM in experiment [12] and 2.5 µM in experiment [13].
As to `CC[C@H](C)[C@H](NC(C)=O)C(=O)N[C@@H](Cc1c[nH]c2ccccc12)C(=O)N[C@H](C(=O)N[C@@H](C)C(=O)N[C@@H](CCC(N)=O)C(=O)N[C@@H](C)C(=O)N[C@@H](CC(C)C)C(=O)N[C@@H](CCCNC(=N)N)C(=O)NC1(C)CCCC=CCCCC(C)(C(=O)N[C@@H](Cc2ccccc2)C(=O)N[C@@H](CC(N)=O)C(=O)N[C@@H](C)C(=O)N[C@@H](Cc2ccc(O)cc2)C(=O)N[C@@H](Cc2ccc(O)cc2)C(=O)N[C@@H](C)C(=O)N[C@@H](CCCNC(=N)N)C(=O)N[C@@H](CCCNC(=N)N)C(N)=O)NC(=O)[C@H](CC(=O)O)NC(=O)CNC(=O)[C@H]([C@@H](C)CC)NC1=O)[C@@H](C)CC` (some centres unmarked) [SP-11] (Ac-IWIAQALR[ξαMeNle(6-ylidene)]IGD[ξαMeNle(6-ylidene)]FNAYYARR-NH2; staple 9-13), the half-maximal effective concentration (EC50) in experiment [1] was determined as 2600 nM; in [2] it was 2700 nM; in experiment [3], 900 nM; in experiment [4], 3200 nM; in experiment [5], 3700 nM; in experiment [6], 1900 nM. The EC50 in [14] was 4600 nM; in experiment [7], 1600 nM; in experiment [8] it was 1200 nM; in experiment [9], 4300 nM; in [10], 2000 nM; in experiment [15], 900 nM. For the same compound, the Kd in experiment [11] is 2.8 µM; in [12] it was 0.25 µM; in experiment [13], less than 0.1 µM.
`CCCC[C@H](NC(=O)[C@H](CO)NC(=O)[C@H](CC(=O)O)NC(=O)CNC(=O)[C@@H](NC(=O)[C@H](CCC(N)=O)NC(=O)[C@H](C)NC(=O)[C@H](CC(C)C)NC(=O)[C@H](Cc1c[nH]cn1)NC(=O)[C@H](CCCNC(=N)N)NC(=O)[C@H](C)NC(=O)[C@@H](NC(=O)[C@H](CC(N)=O)NC(=O)[C@H](CCCNC(=N)N)NC(=O)[C@@H](NC(=O)[C@@H](NC(=O)[C@H](CC(=O)O)NC(C)=O)[C@@H](C)CC)[C@@H](C)CC)[C@@H](C)CC)C(C)C)C(=O)N[C@@H](CC(=O)O)C(=O)N[C@@H](CCCNC(=N)N)C(=O)N[C@@H](CO)C(=O)N[C@H](C(N)=O)[C@@H](C)CC` [SP-3] (HELM PEPTIDE1{[ac].D.I.I.R.N.I.A.R.H.L.A.Q.V.G.D.S.[Nle].D.R.S.I.[am]}$$$$V2.0): the EC50 in experiment [1], in experiment [2], in experiment [3], in [5], in [6] and in experiment [7] was greater than 20000 nM throughout. Further, the EC50 in experiment [15] was greater than 20000 nM. For the same compound, the Kd was greater than 10 µM in experiment [11], 0.4 µM in [12] and 0.12 µM in experiment [13].

As usually defined, the EC50 is the concentration that produces a half-maximal response. The Kd is the concentration at which binding is half-saturated. High values mean weaker binding, low ones tighter binding.
